The results in this text go back to patent US20230040770A1, “HETEROCYCLIC COMPOUND AND USE THEREOF” (TAKEDA PHARMACEUTICAL COMPANY LIMITED, priority 2019, published 2023).

Molecules are shown by their SMILES.

Assay [1] has as its target T1, human orexin type 2 receptor (Homo sapiens, UniProt O43614).
T1 construct: expressed in transfected cells
T1 sequence (O43614 1-444): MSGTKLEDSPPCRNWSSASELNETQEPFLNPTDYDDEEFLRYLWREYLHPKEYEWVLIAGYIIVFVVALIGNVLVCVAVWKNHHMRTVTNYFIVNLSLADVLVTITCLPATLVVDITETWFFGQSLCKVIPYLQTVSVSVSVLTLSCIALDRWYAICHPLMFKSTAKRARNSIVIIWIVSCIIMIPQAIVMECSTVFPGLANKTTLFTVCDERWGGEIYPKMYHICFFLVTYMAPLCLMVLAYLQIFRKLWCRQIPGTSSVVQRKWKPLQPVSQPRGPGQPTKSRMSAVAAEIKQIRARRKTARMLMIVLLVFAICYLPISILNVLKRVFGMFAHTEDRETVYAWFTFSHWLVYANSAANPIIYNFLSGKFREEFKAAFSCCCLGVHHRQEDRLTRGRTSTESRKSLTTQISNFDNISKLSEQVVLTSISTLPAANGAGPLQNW
The assay can be described thus: Measurement of orexin type 2 receptor agonist activity (calcium indicator fluorescence, CHO cells forcibly expressing human OX2 receptor). The assay is classed as cell-based. The conditions noted are these: compound at 3 μM; 0% = DMSO, 100% = orexin A (human) 10 nM. The procedure, abridged: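 Agonist response normalised between vehicle (0%) and orexin A at 10 nM final (100%), from kinetic Fluo-4 calcium signals recorded for about 2 min after compound addition. Cells: stable human OX2R CHO clone, dye-loaded 30 min at 37 °C plus 30 min at room temperature.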

For assay [2], the system named is cynomolgus monkeys. Nature of the assay: Evaluation of wake-promoting effects in cynomolgus monkeys (EEG/EMG). The conditions noted are these: Macaca fascicularis, time spent in wakefulness for 4 h after administration, read-out: Wakefulness time (% of vehicle treatment) (Mean); for response vs control in vivo at 0.1 mg/kg / response vs control in vivo at 0.3 mg/kg: sc; for response vs control in vivo at 0.1 mg/kg: 0.1 mg/kg s.c. at ZT12; for response vs control in vivo at 0.3 mg/kg: 0.3 mg/kg s.c. at ZT12. The assay is classed as in vivo, cynomolgus monkey. How it is done:
The wake-promoting effects were evaluated by measuring the electroencephalogram (EEG) and electromyogram (EMG) in cynomolgus monkeys. Under isoflurane anesthesia (1-5%, Pfizer Japan Inc., Tokyo, Japan), male cynomolgus monkeys (3-5 years old, Hamri Co., Ltd., Ibaraki, Japan) were surgically implanted with radio-telemetry transmitters (TL10M3-D70-EEE, Data Sciences International Inc., MN, USA). EEG electrodes were screwed into the skull at the parietal area. EMG electrodes were implanted on the cervical muscles. After the surgery, each monkey was given penicillin (100,000 units/head, i.m., Meiji Seika Pharma Co., Ltd., Tokyo, Japan), buprenorphine (0.02 mg/kg, i.m., Otsuka Pharmaceutical Co., Ltd., Tokyo, Japan) and prednisolone (1 mg/kg, s.c., Kyoritsu Seiyaku Co., Ltd., Tokyo, Japan) daily for one week. After at least a 1-month recovery period in home cages, the monkeys were habituated to the recording chamber placed in a soundproof room. EEG and EMG signals were recorded using the telemetry system (Dataquest ART software, Data Sciences International Inc., MN, USA) and the signals were analyzed using SleepSign software (Kissei Comtec Co., Ltd., Nagano, Japan). After confirming long sleep in dark phase in the experimental room, we used animals to examine the wake-promoting effect of compounds.
Oral test compounds (3 or 10 mg/kg) suspended in 0.5% methylcellulose aqueous solution, or vehicle (i.e., 0.5% methylcellulose aqueous solution) was administered orally (p.o.) to monkeys at zeitgeber time 12 (ZT12) in a volume of 5 mL/kg body weight in cross-over design or pre-post design (n=1-4). EEG and EMG recordings were performed for 4 h after the compound administration. The time spent in wakefulness for 4 h after administration (% of vehicle treatment) was calculated by using SleepSign.
Parenteral test compounds (0.1 or 0.3 mg/kg) dissolved in a mixed solution comprising 5% DMSO, 5% Cremophor EL, 20% PEG400 and 70% soluplus (1% (w/v)), or vehicle (i.e., a mixed solution comprising 5% DMSO, 5% Cremophor EL, 20% PEG400 and 70% soluplus (1% (w/v))) was administered subcutaneously (s.c.) to monkeys at ZT12 in a volume of 0.5 mL/kg body weight in a pre-post design (n=1-2). EEG and EMG recordings were performed for 4 h after the compound administration. The time spent in wakefulness for 4 h after administration (% of vehicle treatment) was calculated by using SleepSign.

Regarding `Cc1cccc(-c2cccc(C[C@H]3[C@@H](NS(=O)(=O)N(C)C)C(F)(F)CN3C(=O)N3CCC3)c2F)c1` [Example 443, N′-{(2S,3R)-1-(azetidine-1-carbonyl)-4,4-difluoro-2-[(2-fluoro-3′-methyl[1,1′-biphenyl]-3-yl)methyl]pyrrolidin-3-yl}-N,N-dimethylsulfuric diamide], the “OX2R agonist activity (3 μM, %)” value in assay [1] is 90%. For the same molecule, the response vs control in vivo at 0.1 mg/kg in assay [2] came out at 532%.

Regarding `CN(C)S(=O)(=O)N[C@@H]1[C@H](Cc2cccc(-c3cc(F)cc(F)c3)c2F)N(C(=O)[C@H]2CCO2)CC1(F)F` [Example 542, N′-{(2S,3R)-4,4-difluoro-1-[(2R)-oxetane-2-carbonyl]-2-[(2,3′,5′-trifluoro[1,1′-biphenyl]-3-yl)methyl]pyrrolidin-3-yl}-N,N-dimethylsulfuric diamide], in assay [1], the “OX2R agonist activity (3 μM, %)” value stood at 100%. In assay [2], the response vs control in vivo at 0.3 mg/kg came out at 505%.

With `CCS(=O)(=O)N[C@@H]1[C@H](Cc2cccc(-c3cc(F)cc(F)c3)c2F)N(C(=O)C(C)(C)O)CC1(F)F` [Example 3, N-{(2S,3R)-4,4-difluoro-1-(2-hydroxy-2-methylpropanoyl)-2-[(2,3′,5′-trifluoro[1,1′-biphenyl]-3-yl)methyl]pyrrolidin-3-yl}ethanesulfonamide], the “OX2R agonist activity (3 μM, %)” value in assay [1] was 106%. Also, the response vs control in vivo at 3 mg/kg in assay [2] (po, 3 mg/kg p.o. at ZT12) came to 613%.

`Cc1cccc(-c2cccc(C[C@H]3[C@@H](NS(=O)(=O)N(C)C)[C@@H](F)CN3C(=O)N(C)C)c2F)c1` [Example 459, (2S,3R,4S)-3-[(dimethylsulfamoyl)amino]-4-fluoro-2-[(2-fluoro-3′-methyl[1,1′-biphenyl]-3-yl)methyl]-N,N-dimethylpyrrolidine-1-carboxamide]: in assay [1], the “OX2R agonist activity (3 μM, %)” value is reported as 78%. For the same molecule, in assay [2], the response vs control in vivo at 0.3 mg/kg is 431%.

For `Cc1cccc(-c2cccc(C[C@H]3[C@@H](NS(=O)(=O)N(C)C)[C@@H](F)CN3C(=O)C3(O)CCC3)c2F)c1` [Example 462, N′-[(2S,3R,4S)-4-fluoro-2-[(2-fluoro-3′-methyl[1,1′-biphenyl]-3-yl)methyl]-1-(1-hydroxycyclobutane-1-carbonyl)pyrrolidin-3-yl]-N,N-dimethylsulfuric diamide], the “OX2R agonist activity (3 μM, %)” value in assay [1] is 78%. The response vs control in vivo at 0.3 mg/kg in assay [2] was found to be 365%.

`CCS(=O)(=O)N[C@H]1[C@@H](F)CN(C(=O)N2CCC2)[C@H]1Cc1cccc(-c2cc(F)cc(F)c2)c1F` [Example 450, N-{(2S,3R,4S)-1-(azetidine-1-carbonyl)-4-fluoro-2-[(2,3′,5′-trifluoro[1,1′-biphenyl]-3-yl)methyl]pyrrolidin-3-yl}ethanesulfonamide]: the “OX2R agonist activity (3 μM, %)” value in assay [1] stood at 86%. Also, the response vs control in vivo at 0.3 mg/kg in assay [2] is 814%.

Turning to `CCS(=O)(=O)N[C@H]1[C@@H](F)CN(C(=O)N2CCC2)[C@H]1Cc1cccc(-c2cccc(C)c2)c1F` [Example 451, N-{(2S,3R,4S)-1-(azetidine-1-carbonyl)-4-fluoro-2-[(2-fluoro-3′-methyl[1,1′-biphenyl]-3-yl)methyl]pyrrolidin-3-yl}ethanesulfonamide], the “OX2R agonist activity (3 μM, %)” value in assay [1] is listed as 82%. Besides, in assay [2], the response vs control in vivo at 0.1 mg/kg was 225%.

For the molecule `Cc1cccc(-c2cccc(C[C@H]3[C@@H](NS(=O)(=O)N(C)C)[C@@H](F)CN3C(=O)N3CCC3)c2F)c1` [Example 463, N′-{(2S,3R,4S)-1-(azetidine-1-carbonyl)-4-fluoro-2-[(2-fluoro-3′-methyl[1,1′-biphenyl]-3-yl)methyl]pyrrolidin-3-yl}-N,N-dimethylsulfuric diamide], the “OX2R agonist activity (3 μM, %)” value in assay [1] is on record as 79%. For the same molecule, the response vs control in vivo at 0.1 mg/kg in assay [2] was 483%.

`CCS(=O)(=O)N[C@@H]1[C@H](Cc2cccc(-c3cc(F)c(F)c(F)c3)c2F)N(C(=O)C2CCO2)CC1(F)F` (stereo partly drawn) [Example 475, N-{(2S,3R)-4,4-difluoro-1-(oxetane-2-carbonyl)-2-[(2,3′,4′,5′-tetrafluoro[1,1′-biphenyl]-3-yl)methyl]pyrrolidin-3-yl}ethanesulfonamide]: the “OX2R agonist activity (3 μM, %)” value in assay [1] was found to be 100%.

`Cc1cccc(-c2cccc(C[C@H]3[C@@H](NS(=O)(=O)C4CC4)C(F)(F)CN3C(=O)C3CCO3)c2F)c1` (stereo partly drawn) [Example 428, N-[(2S,3R)-4,4-difluoro-2-[(2-fluoro-3′-methyl[1,1′-biphenyl]-3-yl)methyl]-1-(oxetane-2-carbonyl)pyrrolidin-3-yl]cyclopropanesulfonamide]: the “OX2R agonist activity (3 μM, %)” value in assay [1] is listed as 100%.

On to `CCS(=O)(=O)N[C@@H]1[C@H](Cc2cccc(-c3cc(F)cc(F)c3)c2)N(C(=O)C(C)C)CC1(F)F` [Example 116, N-[(2S,3R)-2-[(3′,5′-difluoro[1,1′-biphenyl]-3-yl)methyl]-4,4-difluoro-1-(2-methylpropanoyl)pyrrolidin-3-yl]ethanesulfonamide], for which, in assay [1], the “OX2R agonist activity (3 μM, %)” value came out at 86%.

For the molecule `CCS(=O)(=O)N[C@H]1[C@@H](F)CN(C(=O)N(C)C)[C@H]1Cc1cccc(-c2cccc(F)c2F)c1F` [Example 330, (2S,3R,4S)-3-[(ethanesulfonyl)amino]-4-fluoro-N,N-dimethyl-2-[(2,2′,3′-trifluoro[1,1′-biphenyl]-3-yl)methyl]pyrrolidine-1-carboxmaide], the “OX2R agonist activity (3 μM, %)” value in assay [1] was 98%.

In the case of `CCS(=O)(=O)N[C@@H]1[C@H](Cc2cccc(-c3cccc(F)c3F)c2F)N(C(=O)N2CCC2)CC1(F)F` [Example 289, N-{(2S,3R)-1-(azetidine-1-carbonyl)-4,4-difluoro-2-[(2,2′,3′-trifluoro[1,1′-biphenyl]-3-yl)methyl]pyrrolidin-3-yl}ethanesulfonamide], the “OX2R agonist activity (3 μM, %)” value in assay [1] is 80%.

Turning to `CC(C)(O)C(=O)N1C[C@H](F)[C@H](NS(C)(=O)=O)[C@@H]1Cc1cccc(-c2cc(F)cc(Cl)c2)c1F` [Example 391, N-[(2S,3R,4S)-2-[(3′-chloro-2,5′-difluoro[1,1′-biphenyl]-3-yl)methyl]-4-fluoro-1-(2-hydroxy-2-methylpropanoyl)pyrrolidin-3-yl]methanesulfonamide], in assay [1], the “OX2R agonist activity (3 μM, %)” value came to 92%.

For `Cc1cccc(-c2cccc(C[C@H]3[C@@H](NS(=O)(=O)C4CC4)[C@@H](F)CN3C(=O)C3CCO3)c2F)c1F` (stereo partly drawn) [Example 487, N-[(2S,3R,4S)-2-[(2,2′-difluoro-3′-methyl[1,1′-biphenyl]-3-yl)methyl]-4-fluoro-1-(oxetane-2-carbonyl)pyrroldiin-3-yl]cyclopropanesulfonamide], in assay [1], the “OX2R agonist activity (3 μM, %)” value stood at 95%.
